Measured values as given in patent US10881667B2, “Method and composition for treating epilepsy” (City University of Hong Kong, priority 2018, dated 2021).
“Also recorded” adds a separate entry of the source.

Tested on: epilepsy model mice (intrahippocampal kainic acid)
Assay: spontaneous recurrent seizures in kainic acid-induced epilepsy model mice, Racine scale accumulative scores
Format: in vivo, C57 mice
Conditions: YM022 100 nM, YF476 1 μM; for accumulative scores of spontaneous seizures / spontaneous seizures onset after drug intervention: adult male C57 mice, kainic acid model, i.p. injection, 10 μL (5 mice), 10 μL (9 mice), vs day before intervention; for seizure onsets after multiple injections: kainic acid model mice, multiple i.p. injections, 10 μL
Experimental: FIG. 1 is a series of line plots depicting the statistics of the accumulative scores of spontaneous seizures of epilepsy model mice before and after single or multiple drug interventions ([…], 1 μM, 10 μL). The 9 lines represent 9 epilepsy model mice of the experiment, and the black arrows indicate the time of drug interventions. Accumulative scores were recorded base on the quantity and severity of spontaneous seizures: 3=Racine scale stage-5 seizure; 2=Racine scale stage-4 seizure; 1=Racine scale stage-3 seizure; accumulative score is equal to sum of scores of seizures on daily basis.
FIG. 2 is a series of line plots depicting the statistics of the accumulative scores of spontaneous seizures of epilepsy model mice before and after single or multiple drug interventions (YM022, 100 nM, 10 μL). The 5 lines represent 5 epilepsy model mice of the experiment, and the black arrows indicate the time of drug interventions.
Adult male C57 mice were housed under standard conditions, with food and water available. For injection of kainic acid, mice were anesthetized with sodium pentobarbital (50 mg/kg, i.p.; Ceva Sante Animale Co., France), and atropine sulphate (0.05 mg/kg, s.c.) was administered to inhibit tracheal secretions. Kainic acid (0.3 mg/mL, 650 nL, Tocris), was stereotaxically injected into the right CA3 area of the hippocampus. Kainic acid was slowly injected over 60 s with a 2 μL microsyringe at the following stereotaxic coordinates: AP, −2.06; ML, −1.80; DV, −1.60, respectively. After injection, the needle of the syringe was maintained in situ for additional 5 min to limit reflux along the injection track. Directly after surgery, the mice were housed in clear plexiglass cages (one per cage). A special camera was placed diagonally above each cage for monitoring in both the light and dark phase. Exactly 2 weeks after kainic acid treatment, all videos were collected regularly, and three trained technicians blind to drug intervention viewed the videos. The seizure activities during 12-h epoch (00:00 a.m. to 12:00 p.m.) were rated with Racine scale (Electroencephalogr Clin Neurophysiol, 1972, 32(3): 281-294). Accumulative scores were recorded base on the quantity and severity of spontaneous seizures: 3=Racine scale stage-5 seizure; 2=Racine scale stage-4 seizure; 1=Racine scale stage-3 seizure; accumulative score is equal to sum of scores of seizures on daily basis.
The model of epilepsy induced in mice by kainic acid reproduces most of the clinical and neurophysiological features of human temporal lobe epilepsy. Unilateral intrahippocampal injection of kainic acid induced a limbic status epilepticus which may last for up to 5 hours. […]

Structure (SMILES)	accumulative scores of spontaneous seizures / spontaneous seizures onset after drug intervention	seizure onsets after multiple injections
CNc1cccc(NC(=O)N[C@@H]2N=C(c3ccccn3)c3ccccc3N(CC(=O)C(C)(C)C)C2=O)c1 [YF476]	significantly reduce; also recorded: significant reduction	very rare
Cc1cccc(NC(=O)N[C@@H]2N=C(c3ccccc3)c3ccccc3N(CC(=O)c3ccccc3C)C2=O)c1 [YM022]	significantly reduce; also recorded: significant reduction	very rare
